This passage reports melting point results from a melting point compilation (Tetko et al.; mined from patent text by program, amines drawn as free bases though some values may be those of a salt).

As a reminder, the melting point is the temperature of the solid-liquid transition.

The structures appear in SMILES notation.

Regarding `CC(=O)c1c(-c2cc(C)cs2)sc(-c2ccncc2)c1C`, the melting point fell in the range of 106 to 108 °C.

The compound `O=C(Nc1ccc(Oc2ccnc(-n3ccnc3)n2)c2ccccc12)c1cc(F)cc(N2CCCCC2)c1` showed a melting point of 175 to 176 °C. Next, `CCOC(=O)C1(C)CN(Cc2ccccc2)C(=O)C(=C2SC=CS2)C1=O` (stereo not drawn): 111 to 113 °C.

Consider `Cc1nnc(-c2ccc3occ(-c4ccc5sccc5c4)c3c2)o1`, for which the melting point lay within 159 to 160 °C. On to `Cc1nn(-c2ccc(C(F)(F)F)cn2)cc1COc1ccc(OC(C)(C)C(=O)O)cc1`, for which the melting point was 106 to 107 °C.

In turn, `Clc1ccc(C2(Cn3ccnc3)OCC(CCc3ccccc3)O2)c(Cl)c1` (stereo not drawn) registered a melting point of 118 °C. `Cn1ncc(/C=C/C(=O)Nc2ccc(CC(=O)O)cc2)c1-c1ccc(F)cc1` displayed a melting point of 245 to 246 °C. Regarding `CSc1nc(N)n(-c2ccccc2Oc2ccc(C)cc2O)n1`, the melting point lay in the range of 41 to 42 °C. Compound `CSC(=NC#N)NCCSCc1cccnc1Nc1ccccc1` showed a melting point of 120 to 123 °C. The compound `NS(=O)(=O)c1cc(C(=O)O)cc(OCc2ccsc2)c1-c1ccccc1` showed a melting point of 222 to 223 °C.

As to `CN(O)C(=O)C1CCC(C2CCCCC2)CC1` (stereo not drawn), the melting point lay in the range of 89 to 90 °C.

Consider `CCOC(=O)NNC(=O)Nc1c(F)cc(F)cc1F`, for which the melting point is 177 to 178 °C. As for `CC(C)(C)c1ccc(CCC(C=O)CC2CCCCC2)cc1NC(=O)CC1c2ccccc2Oc2ccccc21` (stereo not drawn), the melting point fell in the range of 117 to 118 °C. Turning to `OCc1ccc(-c2ccccc2)cc1Cl`, the melting point lay in the range of 69 to 70 °C. `CCC(OCc1ccc(-c2ccc(Cl)cc2)cc1)(C(=O)OC)c1ccccc1` (stereo not drawn): the melting point was in the range of 68 to 72 °C. Next, `COc1ccc(-n2ccc(O)n2)cc1`: 167 to 170 °C; `O=C(O)Cc1ccc(NC(=O)C=C2CC(C(=O)O)Nc3cc(Cl)cc(Cl)c32)cc1` (racemic): more than 220 °C. For the compound `CC(C#N)c1nc(O)n[nH]1` (stereo not drawn), the melting point lay within 182 to 184 °C.

For `CCCCOP(=O)(CCCCC1(C(=O)NCCC)c2ccccc2-c2cccnc21)OCCCC` (stereo not drawn), the melting point lay in the range of 131 to 133 °C. `CSc1nnc(SCc2ccc(Cl)cc2)s1` gave a melting point of 77 to 78 °C. Turning to `O=C1OC(=O)C2=C1CCOc1ccccc12`, the melting point fell in the range of 142 to 143 °C. For `COC(=O)Cc1ccc2c(c1)C(C)(C)CCC2(C)C`, the melting point lay within 83 to 85 °C. Next, `CC(C)(C)OC(=O)[C@H](NS(=O)(=O)c1ccc2c(Cl)cnc(Cl)c2c1)C(C)(C)C`: 140 to 142 °C. With `CCOC(=O)Cn1c(-c2ccc(Br)cc2)nc2cccnc21`, the melting point lay within 138 to 139 °C. Compound `CC(=O)Nc1cccc(Sc2c(Cc3cccc4ccccc34)sc3c2c(=O)n(C)c(=O)n3CC(C)C)c1` came in with a melting point of 173 to 174 °C. Compound `Cc1cccc(C)c1-c1cc(Cl)cc2c1OC(CN1CCCCC1)C2` (stereo not drawn) had a melting point of more than 235 °C. Turning to `NC1=Nc2ccccc2CC1`, the melting point was 135 to 136 °C. Compound `COC(=O)c1cncc(OCc2ccc(OCc3nc(-c4ccccc4)oc3C)cc2)c1` yielded a melting point of 138 to 139 °C. Turning to `Cc1cc(SCc2ccc(OCc3ccccc3)cc2)ccc1OCC(=O)O`, the melting point is 120 to 121 °C. `CC(c1ccc(F)c(F)c1F)n1ncc(-c2ccc(S(N)(=O)=O)cc2)c(-c2ccc(F)cc2)c1=O` (stereo not drawn) registered a melting point of 192 to 194 °C. Take `CC(C)(C)CC(=O)NCc1ccc2c(c1)C(=O)N(C1CCC(=O)NC1=O)C2=O` (stereo not drawn): the melting point fell in the range of 232 to 234 °C. On to `O=C1SCCN1Cc1ccc([N+](=O)[O-])cc1`, for which the melting point lay within 146 to 148 °C. The result for `Cc1ccc(S(=O)(=O)OCCc2c(F)ccc(F)c2F)cc1` reads 73 to 74 °C.

For `COC(=O)c1ccc(Cc2cn(C/C=C/c3ccc4ccc(Cl)cc4n3)c3ccc([N+](=O)[O-])cc23)c(OC)c1`, the melting point was 158 to 160 °C. Next, `Cc1ccc(-c2cccc(/C=C/C(=O)O)c2)cc1`: 186 to 187 °C. As for `CO[C@]12C[C@@H](CN3CCC(O)(c4cccc(C(F)(F)F)c4)CC3)CN(C)[C@@H]1Cc1c[nH]c3cccc2c13`, the melting point lay in the range of 135 to 140 °C. In the case of `CNc1cc2c(c(C)c1F)c(=O)c(C(=O)O)cn2-c1cc(N)c(F)cc1F`, the melting point was more than 270 °C. Consider `COc1ccc(NC(C)c2oc3ccc(F)cc3c(=O)c2-c2cccc(F)c2)cc1` (stereo not drawn), for which the melting point lay within 152 to 156 °C. The compound `CN1Cc2c(CCl)ncn2-c2ccccc2C1=O` registered a melting point of 277 to 280 °C. The result for `CN(C)c1nc(N(C)C)c2ncn(Cc3ccccc3F)c2n1` reads 127 °C.

`O=C(NCc1ccc(Cl)cc1)c1cnc2c(O)cccc2c1O` gave a melting point of 319 to 320 °C. Next, `COC(=O)CCC(=O)c1ccccc1NC(=O)CCl`: 102 °C. As for `O=CC(=Cc1ccc(OCc2ccc(Cl)cc2)cc1)C(C=O)=Cc1ccc(OCc2ccc(Cl)cc2)cc1`, the melting point lay in the range of 208 to 209 °C.

The compound `CCOCc1nc2c(N)nc3ccc(OCc4ccccc4)cc3c2n1CCCCN(C(N)=O)c1ccccc1` returned a melting point of 186 to 188 °C. The compound `Cc1[nH]c(=S)[nH]c(=O)c1CCc1ccccc1` showed a melting point of 210 to 214 °C. As for `COc1cc2c(c(Cl)c1Cl)CCC2`, the melting point fell in the range of 78 to 82 °C. Consider `O=C(NCCO)C(Oc1ccc(F)c(C(F)(F)F)c1)c1ccc(Cl)cc1` (stereo not drawn), for which the melting point was found to be 95 °C. The result for `CCOc1nc(O)nn1CC` reads 64 to 67 °C; that for `CC(C)C(=O)N(CCCCCC(=O)O)C(c1ccccc1)c1ccccc1`, 106 to 107 °C. For `O=C(O)c1cc(C(=O)O)c2c(c1)C(C(=O)O)CC(c1ccccc1)N2` (stereo not drawn), the melting point was found to be 300 °C.

On to `NS(=O)(=O)c1cc(C2OCCO2)cs1`, for which the melting point was in the range of 225 to 227 °C.

With `CCc1c(-c2ccc(OCc3ccccc3)cc2)c2ccc3ccc(CO)c1n32`, the melting point was 99 to 102 °C. For the compound `COc1cccc(-c2ccnc(Nc3cc(OC)c(OC)c(OC)c3)n2)c1`, the melting point lay within 155 to 156 °C. Compound `CSc1ccc2c(c1)Cc1ccc(C(=O)O)cc1O2` came in with a melting point of 266 to 267 °C. The compound `Cc1ccc(S(=O)O)cc1` had a melting point of 55 to 57 °C. In the case of `Cc1c(CCCO)c2c(c(C)c1NC(=O)NCCO)C(c1ccc(C(C)C)cc1)CO2` (stereo not drawn), the melting point lay in the range of 153 to 154 °C.

`CC(C)N(CCOc1ccc2c(=O)c3ccc(OCCN(C(C)C)C(C)C)cc3oc2c1)C(C)C` yielded a melting point of 118 °C. The result for `COc1ccc(C2=N[C@H](c3ccccc3)[C@@H](OC(=O)Nc3ccc(Cl)c(Cl)c3)CO2)cc1` (racemic) reads 130 °C; that for `N#CC(C(=O)C(F)(F)F)c1cc(Cl)cc(Cl)c1Cl` (stereo not drawn), 160 to 163 °C; that for `CN1CCC(=C2c3cc(Br)n(C)c3CCn3ccnc32)CC1`, 179 °C.

Consider `COC(=O)[C@@H]1C[C@H](OC(=N)C(Cl)(Cl)Cl)C(=O)[C@H]2[C@@]1(C)CC[C@H]1C(=O)O[C@H](c3ccoc3)C[C@]21C`, for which the melting point fell in the range of 120 to 123 °C. Next, `O=C(N1CCOCC1)N1Cc2c(-c3nc(C4CC4)cs3)ncn2-c2ccccc21`: 193 to 194 °C; `O=C(Cl)[C@@H]1CCCN1S(=O)(=O)c1ccc2ccccc2c1`: 107 to 109 °C.
